Test system: murine peritoneal macrophages
Experiment: Secretion of nitric oxide by murine peritoneal macrophages in vitro (Griess reaction)
Type: cell-based, ICR mice
Settings: 24 hours
Protocol: Ten ICR mice were injected intraperitoneally with 1 ml 3% w/v aqueous thioglycolate. After 3 days, the mice were sacrificed by cervical dislocation. Macrophages were harvested by opening the peritoneum and lavaging the space with PBS. The PBS lavage from each sacrificed mouse was pooled. […] The cells were allowed to adhere on the bottom of the wells of microtiter plates for 1 hr at 37° C. in a humidified atmosphere of […] and 5% CO2. Next, the supernatant in the wells was carefully removed. […] The contacted cells were incubated at 37° C. in a humidified atmosphere of […] and 5% CO2 for 24 hours. At 24 hours, the amount of nitrate present in the cell-free culture medium was determined by the Griess reaction. (See Green L. C. et al, Analysis of nitrate, nitrite, and [15N] nitrate in biological fluids, Anal. Biochem., 1982, 126:131-138.) A 150 μl aliquot of cell-free culture medium was pipetted from each microtiter plate well, and reacted with 50 μl of Griess reagent for 10 minutes in a fresh microtiter plate well. Absorbance of the aliquot was then measured at 540 nm using a microplate reader (BTI, ELX 800).

lipopolysaccharide [LPS]
Increased secretion of nitric oxide, dose dependence: dose-dependent at low LPS concentrations
